Laboratory results published in patent publication US11957671B2, “Benzodioxane modulators of leukotriene A4 hydrolase (LTA4H) for prevention and treatment of aging-associated diseases” (Alkahest, Inc., priority 2021, dated 2024).

Tests used:
LTA4H = LTA4H (Mus musculus (Mouse), UniProt P24527); test: LTB4 Target Engagement Assay (in vivo dosing, calcimycin stimulated blood); settings: for LTB4 levels in calcimycin stimulated plasma: aged mice
Protocol: Whole blood was collected by cardiac puncture using heparin as an anti-coagulant. 160 μL of whole blood was collected in duplicate for each mouse and incubated for 15 minutes in 37° C./5% CO2. During this time a 0.1 mM calcimycin stock was made by diluting 10 mM calcimycin (Sigma C7522) formulated in DMSO into PBS. Control solution was made by diluting the same volume of DMSO in PBS. Both solutions were sonicated for 10 minutes in a 37° C. water bath. 40 μL of 0.1 mM calcimycin (stimulated) or control solution (unstimulated) was added to each well of whole blood and incubated at 37° C./5% CO2 for 30 minutes. Whole blood was spun for 10 minutes at 1000×g to separate out plasma. LTB4 levels were detected by running an ELISA on the collected stimulated and unstimulated plasma diluted 1:10 (Enzo Life Sciences, ADI-901-068). The ELISA plates were read on a BMG LABTECH CLARIOstar plate reader at 405 nm.
FIGS. 60-62 report the results of in vivo target engagement assays with Compound 1 in mouse plasma. Whole blood from mice dosed with Compound 1 for 10-day FIG. 60 or 4 weeks FIG. 61 was incubated with a calcium ionophore to stimulate LTB4 release. Plasma was generated and LTB4 levels were measured using ELISA. LTB4 is the product of LTA4H hydrolysis so this assay reports on LTA4H enzymatic activity.

[1] = system: Male C57BL/6 mice aged 20-21 months; test: Example 15: gene expression and histology, Compound 1 versus SC-57461A; type: in vivo, mouse; settings: Compound 1 1 mg/kg, SC-57461A 2.5 mg/kg PO bid one month
Protocol: Male C57BL/6 mice aged 20-21 months are treated with Vehicle, Compound 1, or SC-57461A commercially available LTA4H inhibitor. The mice are dosed with Compound 1 at 1 mg/kg or SC-57461A at 2.5 mg/kg PO bid for one month. Mice are anesthetized and blood and tissues are collected for further analysis. Blood is collected via cardiac puncture in syringes pre-filled with Heparin. Brains are collected following ACSF perfusion and processed for single cell RNA sequencing of either labeled endothelial cells (experiment 1) or NeuN-positive neuronal nuclei (experiment 2). In a+ separate cohort of mice, brains are collected following 4% PFA perfusion for histological endpoints (experiment 3).

Body weight of aged mice = type: in vivo, mouse
Protocol: (§1) Three independent cohorts of aged wild type (WT; C57BL/6) mice between twenty to twenty-two months of age (20-22 mo) were homogenized into two (2) groups by body weight, total distance travelled in the open field test, and average velocity in the open field test. Group 1 was administered vehicle control PO daily. Group 2 was administered 10 mg/kg of the LTA4H inhibitor Compound 1 PO daily. Both groups were dosed for either 10 days or 4 weeks daily. Behavioral assays were run during the last week of dosing and animals were sacrificed at the end of the study for histological and molecular assays.

[2] = system: aged wild type (WT; C57BL/6) mice; test: Histology of astrocytes (GFAP, AQP4) in CA1 hippocampus; type: in vivo, mouse
Protocol: Brains were collected following saline perfusion and separated by mid-sagittal slice with one-half drop fixed in freshly prepared 4% PFA. PFA was changed to 30% sucrose 24-48 hours later. A second change to 30% sucrose occurred 24 hours later. Brain tissue was sectioned or lysed and analyzed for GFAP, AQP4, or IBA1 by standard histological methods. Images were acquired using a confocal microscope or Axioscan slide scanner.
as §1
FIGS. 22-30 report the results of the histology of astrocytes. GFAP is a pan astrocytic marker that was used to measure total number and size of astrocytes as a readout for astrocyte reactivity. AQP4 is a water channel expressed in astrocyte endfeet that line the blood-brain barrier. GFAP and AQP4 are increased with age and diseases with cognitive decline and BBB impairment (Kress B T et al., Ann Neurol, 76(6):845-61 (2014), Owasil R et al., Int J Mol Sci, 21(4) (2020), and Qi L et al., Life Sci, 88(1-2):50-56)). FIG. 22 reports GFAP percent area (Mann-Whitney test. (n=10, 10)), FIG. 23 reports the number of GFAP+ cells (Mann-Whitney test. (n=10, 10)), and FIG. 24 reports the average size of GFAP+ cells (Mann-Whitney test. (n=10, 10)) in the CA1 region of the hippocampus following 10 days of dosing. FIG. 25 reports the AQP4 intensity across a 60 micron (um) long line drawn across the large descending vessels of the CA1 hippocampus after 10 days of dosing with vehicle or Compound 1.

Sequence of LTA4H (P24527 whole entry): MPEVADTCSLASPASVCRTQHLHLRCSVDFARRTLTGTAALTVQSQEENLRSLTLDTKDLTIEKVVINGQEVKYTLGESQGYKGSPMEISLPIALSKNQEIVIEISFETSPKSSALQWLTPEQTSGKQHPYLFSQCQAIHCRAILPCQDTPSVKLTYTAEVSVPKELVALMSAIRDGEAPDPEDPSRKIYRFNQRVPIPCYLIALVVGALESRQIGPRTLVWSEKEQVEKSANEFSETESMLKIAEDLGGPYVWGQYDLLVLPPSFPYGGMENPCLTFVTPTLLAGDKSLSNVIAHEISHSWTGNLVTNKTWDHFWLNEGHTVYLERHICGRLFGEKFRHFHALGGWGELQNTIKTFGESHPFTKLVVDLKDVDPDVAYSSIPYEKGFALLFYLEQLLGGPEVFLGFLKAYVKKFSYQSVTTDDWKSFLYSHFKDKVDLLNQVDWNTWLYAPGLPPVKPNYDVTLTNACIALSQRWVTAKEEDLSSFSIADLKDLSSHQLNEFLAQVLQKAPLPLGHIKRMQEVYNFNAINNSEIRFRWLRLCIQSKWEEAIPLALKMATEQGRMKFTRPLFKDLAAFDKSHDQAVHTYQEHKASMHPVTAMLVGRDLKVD

O=C(O)C1CCN(Cc2ccc([C@H]3COc4ccccc4O3)cc2)CC1 [Example 1, 1-{4-[(2S)-2,3-dihydro-1,4-benzodioxin-2-yl]benzyl}piperidine-4-carboxylic acid]
LTB4 levels in calcimycin stimulated plasma (LTA4H; 4 weeks of dosing): inhibition of LTA4H
LTB4 levels in calcimycin stimulated plasma (LTA4H; 10 days of dosing): inhibition of LTA4H
LTB4 inhibition, compound made for 3 independent studies (LTA4H; young mice, 2 hours after a single dose): no difference in the amount of inhibition across the 3 independent studies
endothelial gene expression in brain compared to SC-57461A [1]: more robust change in endothelial gene expression
histology of endothelial cells and neurons compared to SC-57461A [1]: more robust changes in histology
neuronal gene expression in brain compared to SC-57461A [1]: more robust change in neuronal gene expression
body weight (Body weight of aged mice; 4 weeks of dosing, first cohort): no change in body weight
body weight (Body weight of aged mice; 4 weeks of dosing, second cohort): no change in body weight
body weight (Body weight of aged mice; 4 weeks of dosing, third cohort): no change in body weight
body weight (Body weight of aged mice; 10 days of dosing, first cohort): no change in body weight
body weight (Body weight of aged mice; 10 days of dosing, second cohort): no change in body weight
body weight (Body weight of aged mice; 10 days of dosing, third cohort): no change in body weight
AQP4 intensity across large descending vessels of CA1 hippocampus ([2]; 4 weeks of treatment): reduction in the AQP4 intensity
GFAP percent thresholded area, CA1 ([2]; 4 weeks of treatment): significant reduction GFAP percent thresholded area
total GFAP+ cell number, CA1 ([2]; 4 weeks of treatment): did not change
AQP4 intensity across large descending vessels of CA1 hippocampus ([2]; 10 days of dosing): trending reduction in AQP4 intensity
